Test results published in BindingDB's records for patent US9260439 (Pfizer, 2016).

Target: Phosphatidylinositol 3-kinase regulatory subunit alpha [Q431L,Q432E,D433V,Q434L,V435F,V436Q,K437G,E438P]/4,5-bisphosphate 3-kinase catalytic subunit alpha isoform (Homo sapiens, UniProt P42336)
Assay: Biochemical Assay
Description: PI3KA_Act: Genes encoding for full length p110alpha and p85alpha nSH-iSH2=niSH2 (p85a aminoacids 322-600) subunits of PI3Kalpha complex were subcloned from existing constructs into pFASTBAC Dual vector (Life Technologies, Carlsbad, Calif.) using standard cloning procedures. Gene encoding p110alpha subunit was subcloned into polyhedrine promoter while gene encoding p85alpha niSH2 domains was subcloned into p10 promoter. Additionally, Human Rhinovirus 3C Protease (HRV 3C) site was introduced between nSH2 and iSH2, replacing aminoacids 431-438 of p85alpha with […] HRV 3C recognition sequence, using standard QuickChange mutagenesis protocol (Agilent Technologies, CA). Recombinant baculovirus was generated using Bac-to-Bac protocol (Life Technologies, Carlsbad, Calif.). The biochemical assays of kinase activity of full-length PI3Kalpha (full-length p110alpha/p85a) or truncated PI3Kalpha (p110alpha/iSH2 p85a) were conducted using a fluorescence polarization format similar to the procedure of Yuan J., et al., (2011) "PF-04691502, a Potent and Selective Oral Inhibitor of PI3K and mTOR Kinases with Antitumor Activity, Mol Cancer Ther. 10, 2189-2199.

## C[C@]1(N2CCc3c(-c4cnc(N)nc4)nc(N4CCOCC4)nc32)CCN(C(=O)C2(F)CC2)C1 [US9260439, 331]
  Ki: < 18 pM

## CC(C)(CO)C(=O)N1CC[C@](C)(N2CCc3c(-c4cnc(N)nc4)nc(N4CCOCC4)nc32)C1 [US9260439, 277]
  Ki: 34 pM

## C[C@]1(N2CCc3c(-c4cnc(N)nc4)nc(N4CCOCC4)nc32)CCN(C(=O)C2(CO)CC2)C1 [US9260439, 339]
  Ki: 80 pM

## C[C@]1(N2CCc3c(-c4cnc(N)nc4)nc(N4CCOCC4)nc32)CCN(C(=O)C2(O)CC2)C1 [US9260439, 338]
  Ki: 71 pM

## CC(=O)NCC(=O)N1CC(N2CCc3c(-c4cnc(N)nc4)nc(N4CCOC[C@@H]4C)nc32)C1 [US9260439, 201]
  Ki: 1400 pM
